Laboratory results taken from PubChem BioAssay AID256 (DTP/NCI, 2004).
“And” between values parts separate entries of the source, which are not always exact repeats. Identical values can stand only once. Toxic doses and inconclusive results are not listed. How the source made its calls: active means survival T/C of 150% or more; inactive means T/C below 125% in these data.

System: CD2F1 mice, L1210 leukemia ip, survival T/C
Assay: NCI In Vivo Anticancer Drug Screen. Data for tumor model L1210 Leukemia (intraperitoneal) in CD2F1 (CDF1) mice
Conditions: higher = longer survival
Summary of the method: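 Tumor-bearing mice (transplanted tumor) were split into treated and vehicle control groups, and the measured endpoint of each treated group was divided by that of its vehicle controls.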

[1] = endpoint: mean survival time, dose: 25.0 mg/kg/injection, schedule: Q04DX003 (ip), vehicle: saline with Tween-80
[2] = endpoint: mean survival time, dose: 100.0 mg/kg/injection, schedule: Q04DX003 (ip), vehicle: saline with Tween-80
[3] = endpoint: mean survival time, dose: 100.0 mg/kg/injection, schedule: Q01DX001 (ip), vehicle: carboxymethylcellulose (CMC)
[4] = endpoint: mean survival time, dose: 200.0 mg/kg/injection, schedule: Q01DX001 (ip), vehicle: carboxymethylcellulose (CMC)
[5] = endpoint: mean survival time, dose: 400.0 mg/kg/injection, schedule: Q01DX001 (ip), vehicle: carboxymethylcellulose (CMC)
[6] = endpoint: mean survival time, dose: 100.0 mg/kg/injection, schedule: Q01DX009 (ip), vehicle: saline with Tween-80
[7] = endpoint: mean survival time, dose: 200.0 mg/kg/injection, schedule: Q01DX009 (ip), vehicle: saline with Tween-80
[8] = endpoint: mean survival time, dose: 200.0 mg/kg/injection, schedule: Q04DX003 (ip), vehicle: saline with Tween-80
[9] = endpoint: mean survival time, dose: 400.0 mg/kg/injection, schedule: Q01DX009 (ip), vehicle: saline with Tween-80
[10] = endpoint: mean survival time, dose: 400.0 mg/kg/injection, schedule: Q04DX003 (ip), vehicle: saline with Tween-80
[11] = endpoint: mean survival time, dose: 50.0 mg/kg/injection, schedule: Q01DX009 (ip), vehicle: Klucel (hydroxypropylcellulose) (HPC)
[12] = endpoint: mean survival time, dose: 100.0 mg/kg/injection, schedule: Q01DX009 (ip), vehicle: Klucel (hydroxypropylcellulose) (HPC)
[13] = endpoint: mean survival time, dose: 200.0 mg/kg/injection, schedule: Q01DX009 (ip), vehicle: Klucel (hydroxypropylcellulose) (HPC)
[14] = endpoint: mean survival time, dose: 400.0 mg/kg/injection, schedule: Q01DX009 (ip), vehicle: Klucel (hydroxypropylcellulose) (HPC)
[15] = endpoint: mean survival time, dose: 100.0 mg/kg/injection, schedule: Q01DX001 (ip), vehicle: saline with Tween-80
[16] = endpoint: mean survival time, dose: 200.0 mg/kg/injection, schedule: Q01DX001 (ip), vehicle: saline with Tween-80
[17] = endpoint: mean survival time, dose: 400.0 mg/kg/injection, schedule: Q01DX001 (ip), vehicle: saline with Tween-80
[18] = endpoint: mean survival time, dose: 6.25 mg/kg/injection, schedule: Q01DX009 (ip), vehicle: saline with Tween-80
[19] = endpoint: mean survival time, dose: 12.5 mg/kg/injection, schedule: Q01DX009 (ip), vehicle: saline with Tween-80
[20] = endpoint: mean survival time, dose: 25.0 mg/kg/injection, schedule: Q01DX009 (ip), vehicle: saline with Tween-80

Measured: T/C

OCCNC(=S)Nc1ccccc1
inactive: endpoint: mean survival time, dose: 7.5 mg/kg/injection, schedule: Q01DX009 (ip), vehicle: saline 97 % of control | endpoint: mean survival time, dose: 15.0 mg/kg/injection, schedule: Q01DX009 (ip), vehicle: saline 95 % of control | [1] 98 % of control | endpoint: mean survival time, dose: 30.0 mg/kg/injection, schedule: Q01DX009 (ip), vehicle: saline 89 % of control | endpoint: mean survival time, dose: 50.0 mg/kg/injection, schedule: Q04DX003 (ip), vehicle: saline with Tween-80 101 % of control | [2] 100 % of control

Nc1cccc2[nH]c(=O)c3ccccc3c12
inactive: [3] 100 % of control | [4] 97 % of control | [5] 100 % of control

N#CCC(=O)OCCCCOC(=O)CC#N
inactive: [6] 96 % of control | [2] 103 % of control | [7] 97 % of control | [8] 97 % of control | [9] 96 % of control | [10] 100 % of control

CC12CC(C(=O)O)C3(O)CC(C)(C1)CC(C)(C2)C3 (configuration not stated) (tested in a mixture with another compound)
inactive: endpoint: mean survival time, dose: 12.5 mg/kg/injection, schedule: Q01DX009 (ip), vehicle: Klucel (hydroxypropylcellulose) (HPC) 95 % of control and 107 % of control | endpoint: mean survival time, dose: 25.0 mg/kg/injection, schedule: Q01DX009 (ip), vehicle: Klucel (hydroxypropylcellulose) (HPC) 101 % of control and 109 % of control | [11] 87 % of control and 107 % of control | [12] 98 % of control and 110 % of control | [13] 101 % of control and 104 % of control | [14] 98 % of control

CCOc1ccc(Nc2cc(=O)[nH]c(=O)[nH]2)cc1
inactive: [15] 95 % of control | [16] 93 % of control | [17] 95 % of control

Nc1ccc2ccccc2c1N=Nc1ccccc1
inactive: [11] 106 % of control | [12] 112 % of control | [13] 113 % of control | [14] 103 % of control

Nc1cnc2nc(N)[nH]c(=O)c2c1
inactive: endpoint: mean survival time, dose: 100.0 mg/kg/injection, schedule: Q01DX009 (ip), vehicle: saline sonified 97 % of control | [2] 93 % of control | endpoint: mean survival time, dose: 200.0 mg/kg/injection, schedule: Q01DX009 (ip), vehicle: saline sonified 102 % of control | [8] 93 % of control | endpoint: mean survival time, dose: 400.0 mg/kg/injection, schedule: Q01DX009 (ip), vehicle: saline sonified 93 % of control | [10] 95 % of control

C/C(=N\NC(N)=O)c1cccc(/C(C)=N/NC(N)=O)n1
inactive: [18] 102 % of control and 103 % of control | [19] 103 % of control and 104 % of control | [20] 100 % of control and 101 % of control | endpoint: mean survival time, dose: 50.0 mg/kg/injection, schedule: Q01DX009 (ip), vehicle: saline with Tween-80 98 % of control and 103 % of control | [6] 92 % of control and 102 % of control | [7] 91 % of control and 110 % of control

O=S(=O)(Nc1ccc(CCc2ccc(NS(=O)(=O)c3ccccc3)cc2)cc1)c1ccccc1
inactive: [15] 95 % of control | [16] 90 % of control | [17] 92 % of control

CCOC1CS(=O)(=O)CC(OCC)O1 (configuration not stated)
inactive: [2] 101 % of control | [8] 109 % of control | [10] 101 % of control

Nc1cc(S(=O)(=O)c2ccc(/C=C/c3ccccc3)c(N)c2)ccc1/C=C/c1ccccc1
inactive: [6] 93 % of control | [7] 94 % of control and 88 % of control | [9] 91 % of control

O=C(OC1(c2ccccc2)C2C=CC1CC2)c1ccc([N+](=O)[O-])cc1 (configuration not stated)
inactive: endpoint: mean survival time, dose: 50.0 mg/kg/injection, schedule: Q04DX002 (ip), vehicle: saline with Tween-80 102 % of control | endpoint: mean survival time, dose: 100.0 mg/kg/injection, schedule: Q04DX002 (ip), vehicle: saline with Tween-80 98 % of control | endpoint: mean survival time, dose: 200.0 mg/kg/injection, schedule: Q04DX002 (ip), vehicle: saline with Tween-80 95 % of control

COc1ccc([I+]c2ccccc2)cc1
inactive: endpoint: mean survival time, dose: 2.5 mg/kg/injection, schedule: Q01DX009 (ip), vehicle: saline sonified 102 % of control | endpoint: mean survival time, dose: 2.5 mg/kg/injection, schedule: Q04DX003 (ip), vehicle: saline with Tween-80 106 % of control | endpoint: mean survival time, dose: 5.0 mg/kg/injection, schedule: Q01DX009 (ip), vehicle: saline sonified 106 % of control | endpoint: mean survival time, dose: 5.0 mg/kg/injection, schedule: Q04DX003 (ip), vehicle: saline with Tween-80 98 % of control | [18] 95 % of control | endpoint: mean survival time, dose: 6.25 mg/kg/injection, schedule: Q04DX003 (ip), vehicle: saline with Tween-80 93 % of control | endpoint: mean survival time, dose: 10.0 mg/kg/injection, schedule: Q01DX009 (ip), vehicle: saline sonified 95 % of control | endpoint: mean survival time, dose: 10.0 mg/kg/injection, schedule: Q04DX003 (ip), vehicle: saline with Tween-80 104 % of control | [19] 118 % of control | endpoint: mean survival time, dose: 12.5 mg/kg/injection, schedule: Q04DX003 (ip), vehicle: saline with Tween-80 92 % of control | [20] 120 % of control | [1] 104 % of control

C1CCC(C2CCCC[N-]2)[N-]C1.CSCCC([NH-])C(=O)O.[Cl][Pt] (configuration not stated)
inactive: endpoint: median survival time, dose: 10.0 mg/kg/injection, schedule: Q04DX003 (ip), vehicle: saline 101 % of control | endpoint: median survival time, dose: 20.0 mg/kg/injection, schedule: Q04DX003 (ip), vehicle: saline 101 % of control | endpoint: median survival time, dose: 40.0 mg/kg/injection, schedule: Q04DX003 (ip), vehicle: saline 94 % of control | endpoint: median survival time, dose: 80.0 mg/kg/injection, schedule: Q04DX003 (ip), vehicle: saline 101 % of control and 103 % of control | endpoint: median survival time, dose: 160.0 mg/kg/injection, schedule: Q04DX003 (ip), vehicle: saline 96 % of control | endpoint: median survival time, dose: 320.0 mg/kg/injection, schedule: Q04DX003 (ip), vehicle: saline 108 % of control

CN(C)C1c2ccccc2-c2ccccc21
inactive: endpoint: mean survival time, dose: 50.0 mg/kg/injection, schedule: Q01DX001 (ip), vehicle: carboxymethylcellulose (CMC) 104 % of control | [3] 104 % of control | [4] 104 % of control | [5] 110 % of control

CCCCCOc1cc(C(C)=O)cc(OC)c1OC(=O)c1cc([N+](=O)[O-])cc([N+](=O)[O-])c1
inactive: [15] 112 % of control | [16] 90 % of control | [17] 93 % of control

OCC1c2ccc(Cl)cc2Nc2ccc(Cl)cc21 (configuration not stated)
inactive: [2] 93 % of control | [8] 89 % of control | [10] 91 % of control

OCC1OC(n2cnc3c2NC=NCC3O)C(Cl)C1O (configuration not stated)
inactive: endpoint: median survival time, dose: 5.0 mg/kg/injection, schedule: Q01DX005 (ip), vehicle: other 101 % of control | endpoint: median survival time, dose: 10.0 mg/kg/injection, schedule: Q01DX005 (ip), vehicle: other 103 % of control | endpoint: median survival time, dose: 20.0 mg/kg/injection, schedule: Q01DX005 (ip), vehicle: other 96 % of control | endpoint: median survival time, dose: 30.0 mg/kg/injection, schedule: Q01DX005 (ip), vehicle: other 118 % of control | endpoint: median survival time, dose: 40.0 mg/kg/injection, schedule: Q01DX005 (ip), vehicle: other 106 % of control | endpoint: median survival time, dose: 60.0 mg/kg/injection, schedule: Q01DX005 (ip), vehicle: other 107 % of control | endpoint: median survival time, dose: 120.0 mg/kg/injection, schedule: Q01DX005 (ip), vehicle: other 100 % of control
